Assay results from ChEMBL document CHEMBL3734705, “Synthesis and in vitro cytotoxicity of novel C-12 substituted-14-deoxy-andrographolide derivatives as potent anti-cancer agents” (2015).

Legend:
EKVX = experiment: Cytotoxicity against human EKVX cells assessed as growth inhibition at 10 uM after 48 hrs by SRB assay; format: functional; conditions: read-out: GI
[1] = Cytotoxicity against human PC3 cells assessed as growth inhibition at 10 uM after 48 hrs by SRB assay; format: functional; conditions: PC-3, 48 h, read-out: GI
SR = experiment: Cytotoxicity against human SR cells assessed as growth inhibition at 10 uM after 48 hrs by SRB assay; format: functional; conditions: read-out: GI
A549 [2] = experiment: Cytotoxicity against human A549 cells assessed as growth inhibition at 10 uM after 48 hrs by SRB assay; format: functional; conditions: A549, 48 h, read-out: GI
[3] = Cytotoxicity against human BT549 cells assessed as growth inhibition at 10 uM after 48 hrs by SRB assay; format: functional; conditions: BT-549, 48 h, read-out: GI
[4] = Cytotoxicity against human LOXIMVI cells assessed as growth inhibition at 10 uM after 48 hrs by SRB assay; format: functional; conditions: LOX IMVI, read-out: GI
[5] = Cytotoxicity against human SW620 cells assessed as growth inhibition at 10 uM after 48 hrs by SRB assay; format: functional; conditions: SW-620, 48 h, read-out: GI
[6] = Cytotoxicity against human COLO205 cells assessed as growth level at 10 uM after 48 hrs by SRB assay; format: functional, COLO 205
[7] = Cytotoxicity against human Caki1 cells assessed as growth inhibition at 10 uM after 48 hrs by SRB assay; format: functional; conditions: CAKI-1, 48 h, read-out: GI
[8] = Cytotoxicity against human RPMI8226 cells assessed as growth inhibition at 10 uM after 48 hrs by SRB assay; format: functional; conditions: RPMI-8226, 48 h, read-out: GI
[9] = Cytotoxicity against human TK10 cells assessed as growth inhibition at 10 uM after 48 hrs by SRB assay; format: functional; conditions: TK-10, 48 h, read-out: GI
NCI-H322M = experiment: Cytotoxicity against human NCI-H322M cells assessed as growth level at 10 uM after 48 hrs by SRB assay; format: functional
[10] = Cytotoxicity against human TK10 cells assessed as growth level at 10 uM after 48 hrs by SRB assay; format: functional, TK-10
U-251 = experiment: Cytotoxicity against human U251 cells assessed as growth level at 10 uM after 48 hrs by SRB assay; format: functional
[11] = Cytotoxicity against human HCT116 cells assessed as growth inhibition at 10 uM after 48 hrs by SRB assay; format: functional; conditions: HCT-116, 48 h, read-out: GI
K562 [12] = experiment: Cytotoxicity against human K562 cells assessed as growth inhibition at 10 uM after 48 hrs by SRB assay; format: functional; conditions: K562, 48 h, read-out: GI
[13] = Cytotoxicity against human SF295 cells assessed as growth level at 10 uM after 48 hrs by SRB assay; format: functional, SF-295
[14] = Cytotoxicity against human SF539 cells assessed as growth level at 10 uM after 48 hrs by SRB assay; format: functional, SF-539
Malme-3M = experiment: Cytotoxicity against human MALME-3M cells assessed as growth level at 10 uM after 48 hrs by SRB assay; format: functional
[15] = Cytotoxicity against human SF268 cells assessed as growth inhibition at 10 uM after 48 hrs by SRB assay; format: functional; conditions: SF-268, 48 h, read-out: GI
[16] = Cytotoxicity against human LOXIMVI cells assessed as growth level at 10 uM after 48 hrs by SRB assay; format: functional, LOX IMVI
SK-MEL-28 = experiment: Cytotoxicity against human SK-MEL-28 cells assessed as growth inhibition at 10 uM after 48 hrs by SRB assay; format: functional; conditions: SK-MEL-28, 48 h, read-out: GI
NCI-H522 [17] = experiment: Cytotoxicity against human NCI-H522 cells assessed as growth level at 10 uM after 48 hrs by SRB assay; format: functional
NCI-H522 [18] = experiment: Cytotoxicity against human NCI-H522 cells assessed as growth inhibition at 10 uM after 48 hrs by SRB assay; format: functional; conditions: NCI-H522, 48 h, read-out: GI
786-0 = experiment: Cytotoxicity against human 786-0 cells assessed as growth level at 10 uM after 48 hrs by SRB assay; format: functional
[19] = Cytotoxicity against human UO31 cells assessed as growth level at 10 uM after 48 hrs by SRB assay; format: functional, UO-31
[20] = Cytotoxicity against human BT549 cells assessed as growth level at 10 uM after 48 hrs by SRB assay; format: functional, BT-549
[21] = Cytotoxicity against human HOP92 cells assessed as growth level at 10 uM after 48 hrs by SRB assay; format: functional, HOP-92
K562 [22] = experiment: Cytotoxicity against human K562 cells assessed as growth level at 10 uM after 48 hrs by SRB assay; format: functional
T47D = experiment: Cytotoxicity against human T47D cells assessed as growth inhibition at 10 uM after 48 hrs by SRB assay; format: functional; conditions: read-out: GI
[23] = Cytotoxicity against human OVCAR5 cells assessed as growth level at 10 uM after 48 hrs by SRB assay; format: functional, OVCAR-5
[24] = Cytotoxicity against human HOP62 cells assessed as growth level at 10 uM after 48 hrs by SRB assay; format: functional, HOP-62
NCI-H226 = experiment: Cytotoxicity against human NCI-H226 cells assessed as growth level at 10 uM after 48 hrs by SRB assay; format: functional
[25] = Cytotoxicity against human OVCAR4 cells assessed as growth level at 10 uM after 48 hrs by SRB assay; format: functional, OVCAR-4
[26] = Cytotoxicity against human HOP62 cells assessed as growth inhibition at 10 uM after 48 hrs by SRB assay; format: functional; conditions: HOP-62, 48 h, read-out: GI
NCI-H23 = experiment: Cytotoxicity against human NCI-H23 cells assessed as growth inhibition at 10 uM after 48 hrs by SRB assay; format: functional; conditions: NCI-H23, 48 h, read-out: GI
[27] = Cytotoxicity against human MOLT4 cells assessed as growth inhibition at 10 uM after 48 hrs by SRB assay; format: functional; conditions: MOLT-4, 48 h, read-out: GI
[28] = Cytotoxicity against human RXF393 cells assessed as growth level at 10 uM after 48 hrs by SRB assay; format: functional, RXF 393
A549 [29] = experiment: Cytotoxicity against human A549 cells assessed as growth level at 10 uM after 48 hrs by SRB assay; format: functional
CCRF-CEM = experiment: Cytotoxicity against human CCRF-CEM cells assessed as growth inhibition at 10 uM after 48 hrs by SRB assay; format: functional; conditions: read-out: GI
[30] = Cytotoxicity against human MOLT4 cells assessed as growth level at 10 uM after 48 hrs by SRB assay; format: functional, MOLT-4
MDA-MB-468 = experiment: Cytotoxicity against human MDA-MB-468 cells assessed as growth inhibition at 10 uM after 48 hrs by SRB assay; format: functional; conditions: MDA-MB-468, 48 h, read-out: GI
[31] = Cytotoxicity against human DU145 cells assessed as growth level at 10 uM after 48 hrs by SRB assay; format: functional, DU-145
HT-29 = experiment: Cytotoxicity against human HT-29 cells assessed as growth level at 10 uM after 48 hrs by SRB assay; format: functional
[32] = Cytotoxicity against human SNB19 cells assessed as growth level at 10 uM after 48 hrs by SRB assay; format: functional, SNB-19

SMILES: C=C1CC[C@@H]2[C@](C)(COC(C)=O)[C@H](OC(C)=O)CC[C@@]2(C)[C@@H]1CC(NC1CCCC1)C1=CCOC1=O (some centres not stated)
- inhibition of growth at 10 µM (EKVX): 47.6%
- inhibition of growth at 10 µM [1]: 55.3%
- inhibition of growth at 10 µM (SR): 80.4%
- inhibition of growth at 10 µM (A549 [2]): 26.4%
- inhibition of growth at 10 µM [3]: 44.4%
- inhibition of growth at 10 µM [4]: 31.5%
- inhibition of growth at 10 µM [5]: 32.5%
- Activity [6]: 75.23%
- inhibition of growth at 10 µM [7]: 39.3%
- inhibition of growth at 10 µM [8]: 62.5%
- inhibition of growth at 10 µM [9]: 12.9%
- Activity (NCI-H322M): 101.16%
- Activity [10]: 87.06%
- Activity (U-251): 75.39%
- inhibition of growth at 10 µM [11]: 55.3%
- inhibition of growth at 10 µM (K562 [12]): 51.7%
- Activity [13]: 90.39%
- Activity [14]: 89.44%
- Activity (Malme-3M): 84.55%
- inhibition of growth at 10 µM [15]: 23.3%
- Activity [16]: 68.48%
- inhibition of growth at 10 µM (SK-MEL-28): 8.95%
- Activity (NCI-H522 [17]): 45.56%
- inhibition of growth at 10 µM (NCI-H522 [18]): 54.4%
- Activity (786-0): 92.51%
- Activity [19]: 56.08%
- Activity [20]: 55.62%
- Activity [21]: 25.23%
- Activity (K562 [22]): 48.3%
- inhibition of growth at 10 µM (T47D): 49.1%
- Activity [23]: 105.62%
- Activity [24]: 94.41%
- Activity (NCI-H226): 84.46%
- Activity [25]: 58.35%
- inhibition of growth at 10 µM [26]: 5.59%
- inhibition of growth at 10 µM (NCI-H23): 37.5%
- inhibition of growth at 10 µM [27]: 57.6%
- Activity [28]: 78.03%
- Activity (A549 [29]): 73.55%
- inhibition of growth at 10 µM (CCRF-CEM): 36.5%
- Activity [30]: 42.41%
- inhibition of growth at 10 µM (MDA-MB-468): 65.3%
- Activity [31]: 91.96%
- Activity (HT-29): 75.54%

SMILES: C=C1CC[C@@H]2[C@](C)(COC(C)=O)[C@H](OC(C)=O)CC[C@@]2(C)[C@@H]1CC(NCc1ccccc1)C1=CCOC1=O (mixture of isomers)
- inhibition of growth at 10 µM (EKVX): 46.1%
- inhibition of growth at 10 µM [1]: 89.9%
- inhibition of growth at 10 µM (SR): 79.1%
- inhibition of growth at 10 µM (A549 [2]): 50.8%
- inhibition of growth at 10 µM [3]: 71.9%
- inhibition of growth at 10 µM [4]: 55.4%
- inhibition of growth at 10 µM [5]: 52.7%
- Activity [6]: 45.59%
- inhibition of growth at 10 µM [7]: 50.4%
- inhibition of growth at 10 µM [8]: 96.8%
- Activity (NCI-H322M): 77.01%
- Activity (U-251): 47.58%
- inhibition of growth at 10 µM [11]: 57.7%
- inhibition of growth at 10 µM (K562 [12]): 75.3%
- Activity [13]: 63.88%
- Activity [14]: 79.48%
- Activity (Malme-3M): 77.12%
- Activity [32]: 68.18%
- inhibition of growth at 10 µM [15]: 37.9%
- Activity [16]: 44.58%
- inhibition of growth at 10 µM (SK-MEL-28): 31.4%
- Activity (786-0): 71.35%
- Activity [19]: 29.11%
- Activity [20]: 28.11%
- Activity [21]: 41.66%
- Activity (K562 [22]): 24.65%
- inhibition of growth at 10 µM (T47D): 85.8%
- Activity [23]: 101.59%
- Activity [24]: 89.01%
- Activity (NCI-H226): 11.36%
- Activity [25]: 35.88%
- inhibition of growth at 10 µM [26]: 11%
- inhibition of growth at 10 µM (NCI-H23): 42.6%
- inhibition of growth at 10 µM [27]: 3.86%
- Activity [28]: 74.33%
- Activity (A549 [29]): 49.21%
- inhibition of growth at 10 µM (CCRF-CEM): 79.1%
- Activity [30]: -3.86%
- inhibition of growth at 10 µM (MDA-MB-468): 77.1%
- Activity [31]: 67.16%

SMILES: C=C1CC[C@@H]2[C@](C)(COC(C)=O)[C@H](OC(C)=O)CC[C@@]2(C)[C@@H]1CC(Nc1ccc(S(=O)(=O)NC(C)=O)cc1)C1=CCOC1=O (mixture of isomers)
- Activity [6]: -32.73%
- Activity (NCI-H322M): 35.29%
- Activity [10]: 2.78%
- Activity (U-251): -65.49%
- Activity [13]: 58.44%
- Activity [14]: -76.71%
- Activity (Malme-3M): -43.58%
- Activity [32]: 23.04%
- Activity [16]: -85.84%
- Activity (NCI-H522 [17]): -63.21%
- Activity (786-0): -66.04%
- Activity [19]: -58.46%
- Activity [20]: -62.63%
- Activity [21]: 20.95%
- Activity (K562 [22]): 4.81%
- Activity [23]: -40.14%
- Activity [24]: 81.97%
- Activity (NCI-H226): -52.34%
- Activity [25]: 26.08%
- Activity [28]: -75.81%
- Activity (A549 [29]): 27.95%
- Activity [30]: 0.12%
- Activity [31]: 0.37%
- Activity (HT-29): -69.92%

SMILES: C=C1CC[C@@H]2[C@](C)(COC(C)=O)[C@H](OC(C)=O)CC[C@@]2(C)[C@@H]1CC(Sc1ccccc1)C1=CCOC1=O (mixture of isomers)
- Activity [6]: -68.06%
- Activity (NCI-H322M): 67.11%
- Activity [10]: 11.37%
- Activity (U-251): 22.94%
- Activity [13]: 65.88%
- Activity [14]: -43.56%
- Activity (Malme-3M): 16.83%
- Activity [32]: 51.79%
- Activity [16]: -83.89%
- Activity (NCI-H522 [17]): -80.61%
- Activity (786-0): -31.19%
- Activity [19]: 35.65%
- Activity [20]: -22.62%
- Activity [21]: 24.5%
- Activity (K562 [22]): 3.95%
- Activity [23]: 39.82%
- Activity [24]: -18.21%
- Activity (NCI-H226): -9.88%
- Activity [25]: 100.23%
- Activity [28]: 5.01%
- Activity (A549 [29]): 26.59%
- Activity [30]: -3.93%
- Activity [31]: 16.39%
- Activity (HT-29): -39.29%
